This note sets out measurements from ChEMBL document CHEMBL1147633, “Structure-activity relationships of a novel class of endothelin receptor selective antagonists; 6-carboxy-2-isopropylamino-5,7-diarylcyclopenteno[1,2-b]pyridines” (Bioorg Med Chem Lett, 2004).

Test [1] has as its target T1, Endothelin receptor type B (Homo sapiens, UniProt P24530).
T1 sequence (P24530 whole entry): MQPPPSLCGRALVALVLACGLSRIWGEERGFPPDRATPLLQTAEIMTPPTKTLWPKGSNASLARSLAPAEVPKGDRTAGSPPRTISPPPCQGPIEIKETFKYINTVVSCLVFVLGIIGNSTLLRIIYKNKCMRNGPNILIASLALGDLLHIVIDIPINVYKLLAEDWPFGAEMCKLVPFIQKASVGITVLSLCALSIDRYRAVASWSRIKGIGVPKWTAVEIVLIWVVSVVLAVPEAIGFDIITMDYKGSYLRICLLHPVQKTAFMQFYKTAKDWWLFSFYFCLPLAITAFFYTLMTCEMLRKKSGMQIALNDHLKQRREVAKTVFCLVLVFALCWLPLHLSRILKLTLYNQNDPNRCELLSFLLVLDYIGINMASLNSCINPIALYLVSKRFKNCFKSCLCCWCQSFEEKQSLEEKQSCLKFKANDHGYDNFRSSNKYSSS
Nature of the test: Inhibitory activity against [125I]ET1 binding to human endothelin B receptor.

Another test has as its target T2, Endothelin-1 receptor (Homo sapiens, UniProt P25101).
T2 sequence (P25101 whole entry): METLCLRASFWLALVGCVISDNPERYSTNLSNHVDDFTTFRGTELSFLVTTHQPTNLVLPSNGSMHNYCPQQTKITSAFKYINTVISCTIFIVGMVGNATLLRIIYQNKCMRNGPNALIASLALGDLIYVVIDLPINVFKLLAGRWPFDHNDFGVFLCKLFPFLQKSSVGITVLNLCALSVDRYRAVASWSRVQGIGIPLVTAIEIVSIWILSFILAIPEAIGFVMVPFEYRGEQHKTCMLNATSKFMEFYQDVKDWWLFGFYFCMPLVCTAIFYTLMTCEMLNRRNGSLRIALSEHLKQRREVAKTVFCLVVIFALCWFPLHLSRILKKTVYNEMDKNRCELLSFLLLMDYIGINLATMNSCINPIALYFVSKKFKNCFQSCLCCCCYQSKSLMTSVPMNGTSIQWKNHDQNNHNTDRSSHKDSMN
Description: Inhibitory activity against [125I]ET1 binding to human endothelin A receptor.

For test [2], the target named is Endothelin receptor, ET-A/ET-B (Homo sapiens) (UniProt P24530+P25101). Nature of the test: Selectivity ratio of inhibitory activity towards endothelin receptor A to endothelin receptor B (ETB/ETA). Type of test: protein assay.

One may read the IC50 as the midpoint of a concentration-inhibition curve. A lower IC50 goes with higher potency. Turning to `CCC(CO)Cc1cc(OC)ccc1[C@@H]1c2nc(NC(C)C)ccc2[C@H](c2ccc3c(c2)OCO3)[C@H]1C(=O)O` (stereo in doubt; form 2) [listing 1 of 2 here], the IC50 in test [1] stood at 11 nM; at Endothelin-1 receptor it was 0.011 nM.
As to `COc1ccc([C@@H]2c3nc(NC(C)C)ccc3[C@H](c3ccc4c(c3)OCO4)[C@H]2C(=O)O)c(CCC(C)(C)O)c1`, the half-inhibitory concentration (IC50) worked out at 23 nM in test [1] and 0.065 nM at Endothelin-1 receptor. In addition, the Selectivity ratio in test [2] came to 350.
With `CCC(CO)Cc1cc(OC)ccc1[C@@H]1c2nc(NC(C)C)ccc2[C@H](c2ccc3c(c2)OCO3)[C@H]1C(=O)O` (stereo in doubt; form 2) [listing 2 of 2 here], in test [2], the Selectivity ratio was determined as 910.
The same measure, in the same setting: under `COc1ccc([C@@H]2c3nc(NC(C)C)ccc3[C@H](c3ccc4c(c3)OCO4)[C@H]2C(=O)O)c(CC(O)CO)c1` (stereo in doubt) [listing 1 of 2 here] stands 120.
With `COc1ccc([C@@H]2c3nc(NC(C)C)ccc3[C@H](c3ccc4c(c3)OCO4)[C@H]2C(=O)O)c(O)c1`, the concentration for half-maximal inhibition (IC50) in test [1] came to 290 nM; on Endothelin-1 receptor it was 0.22 nM. Moreover, the Selectivity ratio in test [2] was determined as 1300.
Take `COc1ccc([C@@H]2c3nc(NC(C)C)ccc3[C@H](c3ccc4c(c3)OCO4)[C@H]2C(=O)O)c(CC(O)CO)c1` (single isomer, unassigned) [listing 1 of 2 here]: the results for the IC50 (in test [1]; at Endothelin-1 receptor) were 6 nM and 0.011 nM, respectively.
In the case of `CCC(CO)Cc1cc(OC)ccc1[C@@H]1c2nc(NC(C)C)ccc2[C@H](c2ccc3c(c2)OCO3)[C@H]1C(=O)O` (stereo in doubt; form 1) [listing 1 of 2 here], the Selectivity ratio in test [2] came to 350.
For `COc1ccc([C@@H]2c3nc(NC(C)C)ccc3[C@H](c3ccc4c(c3)OCO4)[C@H]2C(=O)O)c(CC(C)C(=O)N(C)C)c1` (single isomer, unassigned) [listing 1 of 2 here], the concentration for half-maximal inhibition (IC50) turned out to be 9.5 nM in test [1] and 0.014 nM at Endothelin-1 receptor.
As to `COc1ccc([C@@H]2c3nc(NC(C)C)ccc3[C@H](c3ccc4c(c3)OCO4)[C@H]2C(=O)O)c(OC)c1`, the results for the IC50 (in test [1]; at Endothelin-1 receptor) were 25 nM and 0.047 nM, respectively. In test [2], the Selectivity ratio worked out at 530.
Taken in the same sequence, the figures for `COc1ccc([C@@H]2c3nc(NC(C)C)ccc3[C@H](c3ccc4c(c3)OCO4)[C@H]2C(=O)O)c(CCO)c1` were 19 nM, 0.031 nM and 610.
Consider `CCC(CO)Cc1cc(OC)ccc1[C@@H]1c2nc(NC(C)C)ccc2[C@H](c2ccc3c(c2)OCO3)[C@H]1C(=O)O` (stereo in doubt; form 1) [listing 2 of 2 here], for which the IC50 was 15.7 nM in test [1] and 0.045 nM on Endothelin-1 receptor.
Regarding `COc1ccc([C@@H]2c3nc(NC(C)C)ccc3[C@H](c3ccc4c(c3)OCO4)[C@H]2C(=O)O)c(CC(C)C(=O)N(C)C)c1` (single isomer, unassigned) [listing 2 of 2 here], the Selectivity ratio in test [2] amounted to 680.
For `CCOc1cc(OC)ccc1[C@@H]1c2nc(NC(C)C)ccc2[C@H](c2ccc3c(c2)OCO3)[C@H]1C(=O)O`, the concentration for half-maximal inhibition (IC50) in test [1] turned out to be 45 nM; at Endothelin-1 receptor it was 0.74 nM. Moreover, the Selectivity ratio in test [2] stood at 61.
As to `COc1ccc([C@@H]2c3nc(NC(C)C)ccc3[C@H](c3ccc4c(c3)OCO4)[C@H]2C(=O)O)c(CC(O)CO)c1` (stereo in doubt) [listing 2 of 2 here], the values for the IC50 (in test [1]; on Endothelin-1 receptor) were 5.6 nM and 0.048 nM, respectively.
For the molecule `CCCOc1cc(OC)ccc1[C@@H]1c2nc(NC(C)C)ccc2[C@H](c2ccc3c(c2)OCO3)[C@H]1C(=O)O`, the results for the 50% inhibitory concentration (IC50) (in test [1]; at Endothelin-1 receptor) were 100 nM and 0.41 nM, respectively. The Selectivity ratio in test [2] was 240.
For `COc1ccc([C@@H]2c3nc(NC(C)C)ccc3[C@H](c3ccc4c(c3)OCO4)[C@H]2C(=O)O)c(CC(C)CO)c1` (stereo in doubt; form 2) [listing 1 of 2 here], the IC50 was 51 nM in test [1] and 0.059 nM on Endothelin-1 receptor.
`COc1ccc([C@@H]2c3nc(NC(C)C)ccc3[C@H](c3ccc4c(c3)OCO4)[C@H]2C(=O)O)c(CC(C)CO)c1` (stereo in doubt; form 2) [listing 2 of 2 here]: the Selectivity ratio in test [2] came out at 860.
Still for that read-out and setting: under `COc1ccc([C@@H]2c3nc(NC(C)C)ccc3[C@H](c3ccc4c(c3)OCO4)[C@H]2C(=O)O)c(CC(O)CO)c1` (single isomer, unassigned) [listing 2 of 2 here] stands 550.
